Source: PubChem BioAssay (NCI)
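Exposure lasted 48 hours, with cells grown in 96-well plates and compounds tested at five concentrations. TGI: total growth inhibition.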

Assays:
Assay in all cases: growth of human tumour cells (NCI), 48 h
[1] = system: HOP-62 NSCLC
[2] = system: SK-MEL-2 melanoma
[3] = system: SR leukemia
[4] = system: SF-295 CNS
[5] = system: OVCAR-5 ovarian
[6] = system: SNB-19 CNS
[7] = system: OVCAR-4 ovarian
[8] = system: DU-145 prostate
[9] = system: NCI-H460 lung
[10] = system: NCI-H522 lung
[11] = system: LOX IMVI melanoma
[12] = system: OVCAR-3 ovarian
[13] = system: HL-60(TB) leukemia
[14] = system: SK-MEL-28 melanoma
[15] = system: KM12 colon
[16] = system: MALME-3M melanoma
[17] = system: TK-10 renal
[18] = system: RXF 393 renal
[19] = system: SN12C renal
[20] = system: HOP-92 NSCLC
[21] = system: A549 NSCLC
[22] = system: HCT-15 colon
[23] = system: NCI-H226 lung
[24] = system: EKVX NSCLC
[25] = system: SF-268 CNS
[26] = system: COLO 205 colon
[27] = system: BT-549 breast
[28] = system: MDA-N
[29] = system: PC-3 prostate
[30] = system: K-562 leukemia
[31] = system: SW-620 colon
[32] = system: SNB-75 CNS
[33] = system: OVCAR-8 ovarian
[34] = system: NCI/ADR-RES ovarian
[35] = system: MDA-MB-435
[36] = system: U251 CNS
[37] = system: SK-OV-3 ovarian
[38] = system: T-47D breast
[39] = system: SF-539 CNS
[40] = system: HCT-116 colon
[41] = system: MOLT-4 leukemia
[42] = system: MDA-MB-231 breast
[43] = system: HCC-2998 colon
[44] = system: CAKI-1 renal
[45] = system: UO-31 renal
[46] = system: NCI-H23 lung
[47] = system: CCRF-CEM leukemia
[48] = system: A498 renal
[49] = system: MCF7 breast
[50] = system: SK-MEL-5 melanoma
[51] = system: HS 578T breast
[52] = system: IGROV1 ovarian
[53] = system: RPMI-8226 leukemia
[54] = system: UACC-257 melanoma
[55] = system: ACHN renal
[56] = system: UACC-62 melanoma
[57] = system: 786-0 renal
[58] = system: HT29 colon
[59] = system: M14 melanoma

**Q.** For NCCCNC1(c2cc3ccccc3s2)CCCCC1, which TGI [1] is on record?
**A.** Its TGI is 27.8 µM.

**Q.** And the TGI [2]?
**A.** The TGI was 4.2 µM.

**Q.** What about the TGI [3] of the same molecule?
**A.** Its TGI is 4.68 µM.

**Q.** And the TGI [4]?
**A.** The TGI was 24.8 µM.

**Q.** And the TGI [5]?
**A.** Its TGI is 26.3 µM.

**Q.** And the TGI [6]?
**A.** Its TGI is 22.5 µM.

**Q.** And the TGI [7]?
**A.** The TGI was 25.5 µM.

**Q.** And the TGI [8]?
**A.** The TGI was 24.8 µM.

**Q.** And the TGI [9]?
**A.** Its TGI is 4.06 µM.

**Q.** And the TGI [10]?
**A.** Its TGI is 9.13 µM.

**Q.** And the TGI [11]?
**A.** The TGI was 6.86 µM.

**Q.** What about the TGI [12] of the same molecule?
**A.** The TGI was 22.6 µM.

**Q.** And the TGI [13]?
**A.** The TGI was 14.8 µM.

**Q.** And the TGI [14]?
**A.** Its TGI is 4.59 µM.

**Q.** And the TGI [15]?
**A.** Its TGI is 14.7 µM.

**Q.** What about the TGI [16] of the same molecule?
**A.** The TGI was 3.65 µM.

**Q.** What about the TGI [17] of the same molecule?
**A.** The TGI was 12 µM.

**Q.** And the TGI [18]?
**A.** Its TGI is 17.3 µM.

**Q.** And the TGI [19]?
**A.** The TGI was 22.8 µM.

**Q.** What about the TGI [20] of the same molecule?
**A.** Its TGI is 25.5 µM.

**Q.** And the TGI [21]?
**A.** Its TGI is 21.5 µM.

**Q.** And the TGI [22]?
**A.** Its TGI is 17.7 µM.

**Q.** What about the TGI [23] of the same molecule?
**A.** The TGI was 33.3 µM.

**Q.** And the TGI [24]?
**A.** The TGI was 22.5 µM.

**Q.** What about the TGI [25] of the same molecule?
**A.** The TGI was 24.7 µM.

**Q.** What about the TGI [26] of the same molecule?
**A.** Its TGI is 3.45 µM.

**Q.** And the TGI [27]?
**A.** The TGI was 27.8 µM.

**Q.** What about the TGI [28] of the same molecule?
**A.** Its TGI is 3.56 µM.

**Q.** And the TGI [29]?
**A.** The TGI was 21 µM.

**Q.** And the TGI [30]?
**A.** Its TGI is 5.38 µM.

**Q.** And the TGI [31]?
**A.** Its TGI is 21.2 µM.

**Q.** And the TGI [32]?
**A.** The TGI was 24.2 µM.

**Q.** What about the TGI [33] of the same molecule?
**A.** Its TGI is 24.4 µM.

**Q.** What about the TGI [34] of the same molecule?
**A.** Its TGI is 30.4 µM.

**Q.** What about the TGI [35] of the same molecule?
**A.** The TGI was 4.48 µM.

**Q.** What about the TGI [36] of the same molecule?
**A.** The TGI was 10 µM.

**Q.** What about the TGI [37] of the same molecule?
**A.** The TGI was 28.6 µM.

**Q.** What about the TGI [38] of the same molecule?
**A.** Its TGI is 6.96 µM.

**Q.** What about the TGI [39] of the same molecule?
**A.** Its TGI is 4.23 µM.

**Q.** What about the TGI [40] of the same molecule?
**A.** Its TGI is 4.91 µM.

**Q.** And the TGI [41]?
**A.** Its TGI is 15.7 µM.

**Q.** And the TGI [42]?
**A.** Its TGI is 14.2 µM.

**Q.** And the TGI [43]?
**A.** The TGI was 2.98 µM.

**Q.** And the TGI [44]?
**A.** The TGI was 23 µM.

**Q.** What about the TGI [45] of the same molecule?
**A.** Its TGI is 8.44 µM.

**Q.** What about the TGI [46] of the same molecule?
**A.** The TGI was 31.3 µM.

**Q.** And the TGI [47]?
**A.** Its TGI is 13 µM.

**Q.** And the TGI [48]?
**A.** The TGI was 9.03 µM.

**Q.** What about the TGI [49] of the same molecule?
**A.** Its TGI is 12.2 µM.

**Q.** And the TGI [50]?
**A.** The TGI was 3.31 µM.

**Q.** And the TGI [51]?
**A.** Its TGI is 30.2 µM.

**Q.** What about the TGI [52] of the same molecule?
**A.** Its TGI is 24.3 µM.

**Q.** What about the TGI [53] of the same molecule?
**A.** The TGI was 5.88 µM.

**Q.** And the TGI [54]?
**A.** The TGI was 3.23 µM.

**Q.** What about the TGI [55] of the same molecule?
**A.** Its TGI is 24.4 µM.

**Q.** What about the TGI [56] of the same molecule?
**A.** Its TGI is 3.87 µM.

**Q.** What about the TGI [57] of the same molecule?
**A.** Its TGI is 5.27 µM.

**Q.** What about the TGI [58] of the same molecule?
**A.** The TGI was 10.9 µM.

**Q.** What about the TGI [59] of the same molecule?
**A.** Its TGI is 3.51 µM.

**Q.** Which results are given for O=C(Cc1nccc2c1[nH]c1ccccc12)OC1C#CCSCC#C/C=C\1 (centres undefined)?
**A.** TGI [1]: > 100 µM; TGI [3]: > 100 µM; TGI [4]: > 100 µM; TGI [6]: > 100 µM; TGI [7]: > 100 µM; TGI [8]: > 100 µM; TGI [9]: > 100 µM; TGI [10]: > 100 µM; TGI [11]: > 100 µM; TGI [12]: > 100 µM; TGI [13]: > 100 µM; TGI [14]: > 100 µM; TGI [15]: > 100 µM; TGI [16]: > 100 µM; TGI [17]: > 100 µM; TGI [18]: > 100 µM; TGI [19]: > 100 µM; TGI [20]: > 100 µM; TGI [21]: > 100 µM; TGI [22]: > 100 µM; TGI [23]: > 100 µM; TGI [24]: > 100 µM; TGI [25]: > 100 µM; TGI [26]: > 100 µM; TGI [27]: > 100 µM; TGI [28]: > 100 µM; TGI [29]: > 100 µM; TGI [30]: > 100 µM; TGI [31]: > 100 µM; TGI [33]: > 100 µM; TGI [34]: > 100 µM; TGI [35]: > 100 µM; TGI [36]: > 100 µM; TGI [37]: > 100 µM; TGI [38]: > 100 µM; TGI [39]: > 100 µM; TGI [40]: > 100 µM; TGI [41]: > 100 µM; TGI [42]: > 100 µM; TGI [43]: > 100 µM; TGI [44]: > 100 µM; TGI [45]: > 100 µM; TGI [47]: > 100 µM; TGI [48]: > 100 µM; TGI [49]: > 100 µM; TGI [50]: > 100 µM; TGI [51]: > 100 µM; TGI [52]: > 100 µM; TGI [53]: > 100 µM; TGI [54]: > 100 µM; TGI [55]: > 100 µM; TGI [56]: > 100 µM; TGI [57]: > 100 µM; TGI [58]: > 100 µM; TGI [59]: > 100 µM
